Measurements published in PMC7179302, “Lead Optimization of Dehydroemetine for Repositioned Use in Malaria” (Antimicrobial Agents and Chemotherapy, 2020).
Counter-ions that a name gives are not always drawn.

How the values were obtained:
[1] = tested on: mitochondrial membrane potential of P. falciparum strain K1 trophozoites; experiment: Rhodamine 123 staining for mitochondrial membrane potential, flow cytometry; assay type: cell-based, Plasmodium falciparum; conditions: deviation from infected blood without drugs
Method: Changes in mitochondrial membrane potential were measured using rhodamine 123 (excitation wavelength, 511 nm; emission wavelength, 534 nm), a membrane-permeating cationic fluorescent dye ([49]), which accumulates by electrostatic attraction in the mitochondria because of its negative transmembrane potential. A change in the dye’s concentration in the mitochondria is caused by a depolarization event and can be visualized as a shift in the fluorescence intensity of rhodamine 123 ([50]). Draq5 (excitation wavelength, 647 nm; emission wavelength, >665 nm) is a far-red fluorescent DNA dye which is cell permeating and was used to distinguish the parasites in flow cytometry in the allophycocyanin (APC)-Cy7-A channel. SYBR green was not preferred for this experiment as it emits in the same channel as rhodamine 123 and would result in the overlap of emission signals. Fluorescence microscopy was used to visualize the localization of rhodamine 123 within the cytoplasm of the parasites (Fig. 9).
A decrease in fluorescence intensity measured in the fluorescein isothiocyanate (FITC)-A channel indicates a loss of mitochondrial membrane potential. Atovaquone, a known mitochondrial inhibitor, was used as a control.
Compounds were then washed away by centrifuging the cultures, and a pellet was prepared for each drug concentration. Pellets were then incubated with 1 ml of 200 nM rhodamine 123 for 1 h, followed by a further incubation with 100 μl of 5 μM Draq5 for 20 min. After a wash with PBS, the experiment was read with a flow cytometer on the FITC channel. Loss of mitochondrial membrane potential was indicated by a decrease in fluorescence intensity.

[2] = tested on: K1 strain of P. falciparum; design: method as in PMID 15610563, PMID 24107123; conditions: mean ± standard deviation; cited from earlier work
P. falciparum strain Dd2 = experiment: microbe, parasite or virus in culture; assay type: cell-based; conditions: Plasmodium falciparum, DD2, read-out: IC50 (μM) Dd2
Method: (§1) The cross-resistance assay used relies on the parasites’ incorporation of labeled 3H-hypoxanthine, which is proportional to P. falciparum growth. In vitro cross-resistance of the compounds is measured as the ratio between the IC50 for the tested P. falciparum strain and the IC50 for strain 3D7A. Every replicate from a multidrug-resistant (MDR) strain involved a simultaneous determination using a 3D7A replicate to avoid any artifact linked to experimental conditions.
(§2) The three strains used for the cross-resistance assay were 3D7A, Dd2, and W2, based on their resistance profiles; the assay was carried out by GSK, Tres Cantos. Strain 3D7A is chloroquine sensitive, strain Dd2 is resistant to chloroquine, mefloquine, and pyrimethamine ([57]), and strain W2 is resistant to chloroquine, quinine, pyrimethamine, cycloguanil, and sulfadoxine (from the Malaria Research and Reference Reagent Resource Center [MR4]) ([58]). A culture of red blood cells (RBCs) parasitized by the corresponding strain (0.5% parasitemia, 2% hematocrit) in RPMI 1640, […], and 5 μM hypoxanthine was exposed to 9 dilutions (3-fold serial dilutions) of the compound starting at 5 μM. One hundred microliters of culture volume was plated in 96-well flat-bottom microtiter plates with 0.5 μl drug (200× stock in DMSO). Plates were incubated for 24 h at 37°C, 5% CO2, 5% O2, 90% N2. Next, 3H-hypoxanthine was added and plates were incubated for another 24-h period. After that, parasites were harvested on a glass fiber filter using a TomTec cell harvester 96. Filters were dried, and melt-on scintillator sheets were used to determine the incorporation of 3H-hypoxanthine. Radioactivity was measured using a MicroBeta counter. […] IC50 values were determined using the Grafit 7 program ([41]).

P. falciparum strain W2 = experiment: microbe, parasite or virus in culture; assay type: cell-based; conditions: Plasmodium falciparum, W2, read-out: IC50 (μM) W2
Method: as §1, §2

Entamoeba histolytica = tested on: Entamoeba histolytica; design: method as in PMID 15610563, PMID 24107123; conditions: cited from earlier work
HepG2 cells = experiment: MTT assay for cell cytotoxicity against HepG2 cells; assay type: cell-based; conditions: HepG2 cells, 48 h; ± SD
Method: HepG2 cells (University of Salford stocks, purchased from American Type Culture Collection [ATCC], USA), were grown in medium consisting of RPMI 1640, 2 mM L-glutamine, HEPES, 10% fetal bovine serum, 1% nonessential amino acids, and 1% penicillin-streptomycin. Cells were calculated on a hemocytometer to make a new cell-medium solution to a concentration of 5,000 cells/100 μl, and 100 μl of this new cell solution was added into each well of the 96-well plate. After 24 h of incubation, 100-μl amounts of the drug prepared in the medium were added to the wells. This was repeated in triplicate, and the plate was incubated for a further 48 h ([56]). After the incubation period, 50 μl of MTT solution was added to each well and incubated for 3 h. The liquid in each well was aspirated carefully, 200 μl of DMSO was added to each well, and the results were read on the Ascent plate reader.

[3] = tested on: P. falciparum strain 3D7A; experiment: 3H-hypoxanthine incorporation assay, strain 3D7A; assay type: cell-based; conditions: Plasmodium falciparum; sensitive strain 3D7A, 3H-hypoxanthine incorporation; read-out: IC50 (μM) 3D7A
Method: as §1, §2

Compound | Change in fluorescence intensity (FITC-A mean) of rhodamine 123 ([1]; at 10× IC50, 2 h) [%] | Change in fluorescence intensity (FITC-A mean) of rhodamine 123 ([1]; at IC50, 2 h) [%] | IC50 [2] [nM] | IC50 (P. falciparum strain Dd2) [µM] | IC50 (P. falciparum strain W2) [µM] | IC50 (Entamoeba histolytica) [nM] | LD50 (50% lethal dose), MTT assay (HepG2 cells) [nM] | IC50 [3] [µM]
O=C1C(O)=C([C@H]2CC[C@H](c3ccc(Cl)cc3)CC2)C(=O)c2ccccc21 [Atovaquone, atovaquone] | 43.17 | 41.95 | – | – | – | – | – | –
CC[C@H]1CN2CCc3cc(OC)c(OC)cc3[C@@H]2C[C@@H]1C[C@H]1NCCc2cc(OC)c(OC)cc21 [Emetine dihydrochloride, emetine dihydrochloride, reference compound] | 35.13 | 31.12 | 47 | 0.269 | 0.181 | 26800 ± 1270 | 199.2 ± 9.3 | 0.234
